≈ marks a conversion by molar mass, not a printed value.
What was measured:
[1] = Metabolic stability in CD1 mouse liver microsomes assessed as compound remaining after 1 hr; format: ADME; settings: read-out: Stability
[2] = Metabolic stability in human liver microsomes assessed as compound remaining after 1 hr; format: ADME; settings: read-out: Stability
Vero = assay: Cytotoxicity against African green monkey Vero cells after 72 hrs; format: cell-based; settings: Chlorocebus sabaeus
[3] = test system: Mycobacterium tuberculosis; assay: Antimycobacterial activity against Mycobacterium tuberculosis H37Rv after 8 days by MABA assay; format: functional; settings: 192 h
[4] = test system: Mycobacterium tuberculosis; assay: Antimycobacterial activity against Mycobacterium tuberculosis H37Rv after 11 days by LORA assay; format: functional; settings: 264 h
[5] = test system: Mycobacterium tuberculosis; assay: Antimycobacterial activity against Mycobacterium tuberculosis infected in mouse assessed as fold reduction of colony forming units in lungs at 100 mg/kg, po administered for 5 days a week for 3 weeks beginning on day 11 post-infection relative to pretomanid; format: functional
[6] = test system: Mycobacterium tuberculosis; assay: Ratio of pretomanid MIC90 to compound MIC90 for Mycobacterium tuberculosis H37Rv after 8 days by MABA assay; format: functional
[7] = test system: Mycobacterium tuberculosis; assay: Ratio of pretomanid MIC90 to compound MIC90 for Mycobacterium tuberculosis H37Rv after 11 days by LORA assay; format: functional
Plasma = assay: AUC (0 to infinity) in CD1 mouse plasma at 40 mg/kg, po; format: ADME, organism-based; parameters: dose 40 mg/kg, route oral, time infinity; settings: in vivo
[8] = Half life in CD1 mouse plasma at 40 mg/kg, po; format: ADME, organism-based
Lung = assay: AUC (0 to infinity) in CD1 mouse lung at 40 mg/kg, po; format: ADME, organism-based; parameters: dose 40 mg/kg, time infinity, route oral; settings: in vivo
[9] = Ratio of AUC (0 to infinity) in CD1 mouse lung to AUC (0 to infinity) in CD1 mouse plasma at 40 mg/kg, po; format: ADME, organism-based; settings: read-out: Ratio AUC
[10] = Half life in CD1 mouse lung at 40 mg/kg, po; format: ADME, organism-based
[11] = test system: Mycobacterium tuberculosis; assay: Antimycobacterial activity against Mycobacterium tuberculosis infected in mouse assessed as fold reduction of colony forming units in lungs at 100 mg/kg, po administered for 5 days a week for 3 weeks beginning on day 70 post-infection relative to control; format: functional
[12] = Cmax in CD1 mouse lung at 40 mg/kg, po; format: ADME, organism-based; parameters: dose 40 mg/kg, route oral
[13] = Cmax in CD1 mouse plasma at 40 mg/kg, po; format: ADME, organism-based; parameters: dose 40 mg/kg, route oral

| Compound | remaining at 1 h [1] | remaining at 1 h [2] | IC50 (Vero) | MIC90 [3] | MIC90 [4] | further results |
| --- | --- | --- | --- | --- | --- | --- |
| O=[N+]([O-])c1cn2c(n1)OC[C@@H](OCc1c(F)cc(-c3ccc(OC(F)(F)F)cc3)cc1F)C2 | 94% | 95% | > 128 µM | 0.06 µM (≈ 0.0283 µg/mL) | 1.5 µM (≈ 0.707 µg/mL) | Ratio [5]: 0.98 |
| O=[N+]([O-])c1cn2c(n1)OC[C@@H](OCc1ccc(-c3ccc(OC(F)(F)F)cc3)cc1C(F)(F)F)C2 | 96% | 100% | > 128 µM | 0.65 µM (≈ 0.327 µg/mL) | 2.4 µM (≈ 1.21 µg/mL) | – |
| O=[N+]([O-])c1cn2c(n1)OC[C@@H](OCc1ccc(-c3ccc(C(F)(F)F)nc3)cc1F)C2 | 78% | 96% | > 128 µM | 0.13 µM (≈ 0.057 µg/mL) | 0.68 µM (≈ 0.298 µg/mL) | Ratio [5]: 13 |
| O=[N+]([O-])c1cn2c(n1)OCC(COCc1ccc(OC(F)(F)F)cc1)C2 (stereo unspecified) | 41% | 71% | 46 µM | – | – | – |
| O=[N+]([O-])c1cn2c(n1)OC[C@H](COc1ccc(OC(F)(F)F)cc1)C2 | 72% | 90% | > 128 µM | 0.5 µM (≈ 0.18 µg/mL) | 9 µM (≈ 3.23 µg/mL) | Ratio [6]: 2; Ratio [7]: 5; Ratio [5]: 0.41 |
| O=[N+]([O-])c1cn2c(n1)OCC(COc1ccc(-c3ccc(C(F)(F)F)cc3)cn1)C2 (stereo unspecified) | – | – | > 128 µM | 0.04 µM (≈ 0.0168 µg/mL) | 109 µM (≈ 45.8 µg/mL) | – |
| O=[N+]([O-])c1cn2c(n1)OCC(COc1ccc(-c3ccc(F)cc3)cc1)C2 (stereo unspecified) | – | – | > 128 µM | 0.03 µM (≈ 0.0111 µg/mL) | 108 µM (≈ 39.9 µg/mL) | – |
| O=[N+]([O-])c1cn2c(n1)OC[C@@H](OCc1c(Cl)cc(-c3ccc(OC(F)(F)F)cc3)cc1Cl)C2 | 93% | 98% | > 128 µM | 0.62 µM (≈ 0.313 µg/mL) | 11 µM (≈ 5.55 µg/mL) | – |
| O=[N+]([O-])c1cn2c(n1)OCC(COc1ccc(-c3ccc(OC(F)(F)F)cc3)nc1)C2 (stereo unspecified) | – | – | > 128 µM | 0.15 µM (≈ 0.0655 µg/mL) | 6.9 µM (≈ 3.01 µg/mL) | – |
| COc1cc(-c2ccc(OC(F)(F)F)cc2)ccc1CO[C@@H]1COc2nc([N+](=O)[O-])cn2C1 | 87% | 88% | > 128 µM | 0.64 µM (≈ 0.298 µg/mL) | 5.5 µM (≈ 2.56 µg/mL) | – |
| O=[N+]([O-])c1cn2c(n1)OC[C@@H](OCc1ccc(-c3ccc(OC(F)(F)F)cc3)cc1F)C2 | 85% | 93% | > 128 µM | 0.017 µM (≈ 0.00771 µg/mL) | 1.2 µM (≈ 0.544 µg/mL) | AUC (Plasma): 202 µg/h/mL; half-life [8]: 22.3 h; AUC (Lung): 549 µg/h/mL; Kp [9]: 2.7; half-life [10]: 28.1 h; Ratio [5]: 33; Ratio [11]: 2.2; Cmax [12]: 12100 ng/mL; Cmax [13]: 6700 ng/mL |
| O=[N+]([O-])c1cn2c(n1)OC[C@@H](OCc1ccc(-c3ccc(OC(F)(F)F)cc3)c[n+]1[O-])C2 | – | – | > 128 µM | 0.05 µM (≈ 0.0226 µg/mL) | 32 µM (≈ 14.5 µg/mL) | – |
| O=[N+]([O-])c1cn2c(n1)OCC(COc1ccc(-c3ccc(F)cc3)nc1)C2 (stereo unspecified) | – | – | > 128 µM | 0.15 µM (≈ 0.0556 µg/mL) | 2 µM (≈ 0.741 µg/mL) | – |
| O=[N+]([O-])c1cn2c(n1)OC[C@@H](OCc1ccc(-c3ccc(OC(F)(F)F)cc3)cc1Cl)C2 | 100% | 99% | > 128 µM | 0.17 µM (≈ 0.0799 µg/mL) | 1.6 µM (≈ 0.752 µg/mL) | Ratio [5]: 2.1 |
| O=[N+]([O-])c1cn2c(n1)OC[C@@H](OCc1c(F)cc(-c3ccc(C(F)(F)F)nc3)cc1F)C2 | – | – | 43 µM | 0.35 µM (≈ 0.16 µg/mL) | 2.9 µM (≈ 1.32 µg/mL) | – |
| O=[N+]([O-])c1cn2c(n1)OC[C@@H](COc1ccc(OC(F)(F)F)cc1)C2 | 80% | 91% | > 128 µM | 0.23 µM (≈ 0.0826 µg/mL) | 1.9 µM (≈ 0.683 µg/mL) | Ratio [6]: 2; Ratio [7]: 5; Ratio [5]: 0.7 |
| O=[N+]([O-])c1cn2c(n1)OC[C@@H](OCc1ccc(-c3ccc(OC(F)(F)F)cc3)cc1OC(F)(F)F)C2 | 100% | 97% | > 128 µM | 0.45 µM (≈ 0.234 µg/mL) | 7.5 µM (≈ 3.9 µg/mL) | – |

| Compound | remaining at 1 h [1] | remaining at 1 h [2] | IC50 (Vero) | MIC90 [3] | MIC90 [4] | further results |
| --- | --- | --- | --- | --- | --- | --- |
| O=[N+]([O-])c1cn2c(n1)OCC(COCc1ccc(-c3ccc(F)cc3)cc1)C2 (stereo unspecified) | – | – | 24 µM | 0.47 µM (≈ 0.18 µg/mL) | 7.9 µM (≈ 3.03 µg/mL) | – |
| O=[N+]([O-])c1cn2c(n1)OC[C@@H](OCc1ccc(OC(F)(F)F)cc1)C2 [PRETOMANID] | – | 82% | – | 0.5 µM (≈ 0.18 µg/mL) | 2.6 µM (≈ 0.934 µg/mL) | – |
| O=[N+]([O-])c1cn2c(n1)OCC(COc1ccc(-c3ccc(C(F)(F)F)cc3)cc1)C2 (stereo unspecified) | – | – | > 128 µM | 0.035 µM (≈ 0.0147 µg/mL) | 100 µM (≈ 41.9 µg/mL) | – |
| O=[N+]([O-])c1cn2c(n1)OC[C@@H](OCc1ccc(-c3ccc(OC(F)(F)F)cc3)cc1)C2 | – | – | – | – | – | AUC (Plasma): 198 µg/h/mL; AUC (Lung): 218 µg/h/mL |
| O=[N+]([O-])c1cn2c(n1)OCC(COc1ccc(-c3ccc(OC(F)(F)F)cc3)cc1)C2 (stereo unspecified) | 93% | 100% | > 128 µM | 0.14 µM (≈ 0.061 µg/mL) | > 128 µM | Ratio [5]: 2 |
| O=[N+]([O-])c1cn2c(n1)OCC(COCc1ccc(-c3ccc(OC(F)(F)F)cc3)cc1)C2 (stereo unspecified) | – | – | > 128 µM | 0.3 µM (≈ 0.135 µg/mL) | > 128 µM | – |
| O=[N+]([O-])c1cn2c(n1)OC[C@@H](OCc1ccc(-c3ccc(OC(F)(F)F)cc3)c(Cl)c1)C2 | – | – | > 128 µM | 0.21 µM (≈ 0.0987 µg/mL) | 1.5 µM (≈ 0.705 µg/mL) | – |
| O=[N+]([O-])c1cn2c(n1)OC[C@@H](OCc1ccc(-c3ccc(OC(F)(F)F)cc3)c(F)c1)C2 | – | – | > 128 µM | 0.055 µM (≈ 0.0249 µg/mL) | 0.51 µM (≈ 0.231 µg/mL) | – |
| O=[N+]([O-])c1cn2c(n1)OCC(COCc1ccc(-c3ccc(C(F)(F)F)cc3)cc1)C2 (stereo unspecified) | – | – | 38 µM | 0.49 µM (≈ 0.212 µg/mL) | > 128 µM | – |
| O=[N+]([O-])c1cn2c(n1)OCC(COc1ccc(-c3ccc(OC(F)(F)F)cc3)cn1)C2 (stereo unspecified) | – | – | > 128 µM | 0.045 µM (≈ 0.0196 µg/mL) | 100 µM (≈ 43.6 µg/mL) | – |
| N#Cc1cc(-c2ccc(OC(F)(F)F)cc2)ccc1CO[C@@H]1COc2nc([N+](=O)[O-])cn2C1 | 88% | 91% | > 128 µM | 0.053 µM (≈ 0.0244 µg/mL) | 0.45 µM (≈ 0.207 µg/mL) | Ratio [5]: 2.9 |
| O=[N+]([O-])c1cn2c(n1)OCC(COc1ccc(-c3ccc(C(F)(F)F)cc3)nc1)C2 (stereo unspecified) | – | – | > 128 µM | 0.22 µM (≈ 0.0925 µg/mL) | 1.3 µM (≈ 0.546 µg/mL) | – |
| O=[N+]([O-])c1cn2c(n1)OCC(COc1ccc(-c3ccc(F)cc3)cn1)C2 (stereo unspecified) | – | – | > 128 µM | 0.03 µM (≈ 0.0111 µg/mL) | 25 µM (≈ 9.26 µg/mL) | – |
| O=[N+]([O-])c1cn2c(n1)OCC(COc1ccc(OC(F)(F)F)cc1)C2 (stereo unspecified) | – | – | > 128 µM | – | – | – |
| N#Cc1cc(-c2ccc(C(F)(F)F)nc2)ccc1CO[C@@H]1COc2nc([N+](=O)[O-])cn2C1 | – | – | > 128 µM | 0.28 µM (≈ 0.125 µg/mL) | 1.1 µM (≈ 0.49 µg/mL) | – |
| O=[N+]([O-])c1cn2c(n1)OC[C@@H](OCc1ccc(-c3ccc(C(F)(F)F)cn3)cc1F)C2 | 77% | 90% | > 128 µM | 0.055 µM (≈ 0.0241 µg/mL) | 2.3 µM (≈ 1.01 µg/mL) | Ratio [5]: 51 |
| O=[N+]([O-])c1cn2c(n1)OC[C@@H](OCc1ccc(-c3ccc(C(F)(F)F)nc3)c(F)c1)C2 | – | – | > 128 µM | 0.25 µM (≈ 0.11 µg/mL) | 0.9 µM (≈ 0.395 µg/mL) | – |

From ChEMBL document CHEMBL3608202, “Biarylmethoxy 2-nitroimidazooxazine antituberculosis agents: Effects of proximal ring substitution and linker reversal on metabolism and efficacy” (Bioorg Med Chem Lett, 2015)
